Consider 29 molecules from patent publication US20100168102A9, “Amide Derivatives as Kinase Inhibitors” (Devgen NV, priority 2005, published 2010).

The target of one test is T1, PKC epsilon (Homo sapiens, UniProt Q02156).
T1 construct: purchased Invitrogen P2282
T1 sequence (Q02156 1-737): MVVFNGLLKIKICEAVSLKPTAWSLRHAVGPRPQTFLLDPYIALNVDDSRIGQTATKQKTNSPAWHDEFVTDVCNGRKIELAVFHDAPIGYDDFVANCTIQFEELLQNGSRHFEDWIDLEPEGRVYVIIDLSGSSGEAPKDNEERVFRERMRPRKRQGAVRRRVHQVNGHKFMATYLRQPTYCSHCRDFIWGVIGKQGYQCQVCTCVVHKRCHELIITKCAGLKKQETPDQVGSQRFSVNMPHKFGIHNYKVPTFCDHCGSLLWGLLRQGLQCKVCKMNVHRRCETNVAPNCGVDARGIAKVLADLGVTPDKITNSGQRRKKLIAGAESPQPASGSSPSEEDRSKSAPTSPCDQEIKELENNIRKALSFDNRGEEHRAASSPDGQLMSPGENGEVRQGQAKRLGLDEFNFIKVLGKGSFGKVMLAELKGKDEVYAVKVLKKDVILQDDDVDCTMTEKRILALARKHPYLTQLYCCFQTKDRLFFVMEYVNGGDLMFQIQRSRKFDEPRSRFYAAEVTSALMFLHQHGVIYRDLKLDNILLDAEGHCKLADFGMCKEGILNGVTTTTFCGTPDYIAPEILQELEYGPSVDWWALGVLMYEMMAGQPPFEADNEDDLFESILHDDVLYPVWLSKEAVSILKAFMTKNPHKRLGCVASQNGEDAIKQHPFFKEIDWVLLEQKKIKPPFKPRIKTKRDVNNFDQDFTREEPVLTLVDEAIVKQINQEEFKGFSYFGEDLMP
The test is described as follows: Biochemical assay for PKC epsilon (fluorescence polarization, Protein Kinase C Assay Kit, Red). A digest of the protocol:
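PKC epsilon at 10 ng/ml final was preincubated 30 min at room temperature with compound in HEPES pH 7.4 with DTT and Triton X-100. ATP/protein substrate was then added in buffer with MgCl2 and CaCl2 for 80 min. The reaction was stopped with EDTA, phosphorylation was detected by fluorescence polarization with rhodamine tracer and anti-phosphoserine antibody, and IC50 values came from curve fits.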
(Fluorescence polarisation rises when a labelled molecule tumbles more slowly, as on binding a larger partner.)

The next test addresses T2, human ROCKα/ROCKII mix (Homo sapiens, UniProt O75116).
T2 construct: purchased Upstate Biotechnology 14-451
The test is described as follows: Biochemical assay for ROCK (fluorescence polarization, ROCK IMAP Kit).

[1] abbreviates: Table 2, compounds of Formula XIII, read-out: IC50 μM PKCε.
The mark [2] stands for this setting: Table 2, compounds of Formula XIII.
Setting [3] is: compounds of Formula XIV, Table 3, read-out: IC50 μM PKCε.
Setting [4] is: compounds of Formula XIV, Table 3.

Where two headings read alike, the source gives them in different places. A value given as a limit tells only on which side of the number the result lay.

T2 sequence (O75116 11-552 limits assumed): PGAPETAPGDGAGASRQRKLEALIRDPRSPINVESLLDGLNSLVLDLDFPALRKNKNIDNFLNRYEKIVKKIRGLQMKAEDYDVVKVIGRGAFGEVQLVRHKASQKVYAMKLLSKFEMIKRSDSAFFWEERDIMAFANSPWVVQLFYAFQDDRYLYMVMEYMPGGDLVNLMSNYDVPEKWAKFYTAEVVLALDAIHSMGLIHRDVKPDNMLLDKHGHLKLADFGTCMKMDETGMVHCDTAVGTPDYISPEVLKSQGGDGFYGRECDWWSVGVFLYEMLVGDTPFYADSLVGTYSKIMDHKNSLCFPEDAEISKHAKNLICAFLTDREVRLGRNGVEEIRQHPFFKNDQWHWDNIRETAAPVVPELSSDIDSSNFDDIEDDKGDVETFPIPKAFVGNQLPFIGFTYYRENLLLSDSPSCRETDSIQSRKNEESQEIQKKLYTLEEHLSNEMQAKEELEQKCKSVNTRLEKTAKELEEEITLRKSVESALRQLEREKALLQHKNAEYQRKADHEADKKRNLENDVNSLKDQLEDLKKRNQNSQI

As for `NC(CNC(=O)NC1CCCC1)c1ccc(C(=O)Nc2ccncc2)cc1` (stereo not shown) [Compound 4, 4-[1-amino-2-(3-cyclopentyl-ureido)-ethyl]-N-pyridin-4-yl-benzamide], the IC50 at PKC epsilon (read-out: IC50 μM PKCε) and against human ROCKα/ROCKII mix was 0.5 to 5 µM each time.

Consider `NC(CNC(=O)c1ccc2ncccc2c1)c1ccc(C(=O)Nc2ccncc2)cc1` (stereo not shown) [Compound 114, Quinoline-6-carboxylic acid {2-amino-2-[4-(pyridin-4-ylcarbamoyl)-phenyl]-ethyl}-amide], for which the IC50 fell in the range of 5 to 50 µM at PKC epsilon (setting [1]) and 0.5 to 5 µM against human ROCKα/ROCKII mix (setting [2]).

Consider `NC(CNC(=O)CCc1ccc(F)cc1)c1ccc(C(=O)Nc2ccncc2)cc1` (stereo not shown) [Compound 163, 4-{1-amino-2-[3-(4-fluoro-phenyl)-propionylamino]-ethyl}-N-pyridin-4-yl-benzamide], for which the IC50 at PKC epsilon (setting [1]) and against human ROCKα/ROCKII mix (setting [2]) was 0.05 to 0.5 µM in each case.

As for “4-(1-Amino-2-{[2-(3-fluoro- phenyl)-acetyl]-methyl- amino}-ethyl)- N-pyridin-4-yl-benzamide [Compound 468]”, the IC50 lay in the range of 5 to 50 µM on PKC epsilon (read-out: IC50 μM PKCε) and 0.5 to 5 µM at human ROCKα/ROCKII mix.

In the case of `N[C@H](CC(=O)N[C@@H]1COc2ccccc21)c1ccc(C(=O)Nc2ccncc2)cc1` [Compound 405, 4-{(R)-1-Amino-2-[(S)-(2,3-dihydro-benzofuran-3-yl)carbamoyl]-ethyl}-N-pyridin-4-yl-benzamide], the IC50 on PKC epsilon (read-out: IC50 μM PKCε) and at human ROCKα/ROCKII mix was less than 0.05 µM throughout.

As to `COc1cccc(C(=O)NCC(N)c2ccc(C(=O)Nc3ccncc3)cc2)c1` (stereo not shown) [Compound 73, 4-[1-amino-2-(3-methoxy-benzoylamino)-ethyl]-N-pyridin-4-yl-benzamide], the IC50 at PKC epsilon (setting [1]) and against human ROCKα/ROCKII mix (setting [2]) was 0.5 to 5 µM in each case.

As to “4-(1-Amino-2-{[2-(4-chloro- phenyl)-acetyl]-methyl- amino}-ethyl)- N-pyridin-4-yl-benzamide [Compound 460]”, the IC50 on PKC epsilon (read-out: IC50 μM PKCε) was in the range of 5 to 50 µM; on human ROCKα/ROCKII mix, 0.5 to 5 µM.

Take “4-(1-Amino-2-{[2-(4-bromo- phenyl)-acetyl]-methyl- amino}-ethyl)- N-pyridin-4-yl-benzamide [Compound 457]”: the IC50 on PKC epsilon (read-out: IC50 μM PKCε) was 5 to 50 µM; at human ROCKα/ROCKII mix, 0.5 to 5 µM.

As to `CCCCC(=O)NCC(N)c1ccc(C(=O)Nc2ccncc2)cc1` (stereo not shown) [Compound 33, 4-(1-Amino-2-pentanoylamino-ethyl)-N-pyridin-4-yl-benzamide], the IC50 at PKC epsilon (setting [1]) and against human ROCKα/ROCKII mix (setting [2]) was 0.5 to 5 µM throughout.

Consider `NC(c1ccc(C(=O)Nc2ccncc2)cc1)C1CCCN1C(=O)C1(c2ccc(F)c(F)c2)CCC1` (stereo not shown) [Compound 588, 4-(Amino-{1-[1-(3,4-difluoro-phenyl)-cyclobutanecarbonyl]-pyrrolidin-2-yl}-methyl)-N-pyridin-4-yl-benzamide], for which the IC50 on PKC epsilon (read-out: IC50 μM PKCε) and against human ROCKα/ROCKII mix was 0.5 to 5 µM in each case.

Turning to `COc1cc(CCNC(=O)CC(N)c2ccc(C(=O)Nc3ccncc3)cc2)cc(OC)c1` (stereo not shown) [Compound 294, 4-{1-Amino-2-[2-(3,5-dimethoxy-phenyl)-ethylcarbamoyl]-ethyl}-N-pyridin-4-yl-benzamide], the figures for the half-inhibitory concentration (IC50) on PKC epsilon (setting [3]) and against human ROCKα/ROCKII mix (setting [4]) were 5 to 50 µM and 0.05 to 0.5 µM, respectively.

Turning to `CN(CC(N)c1ccc(C(=O)Nc2ccncc2)cc1)C(=O)Cc1cccc(F)c1F` (stereo not shown) [Compound 477, 4-(1-Amino-2-{[2-(2,3-difluoro-phenyl)-acetyl]-methyl-amino}-ethyl)-N-pyridin-4-yl-benzamide], the IC50 at PKC epsilon (read-out: IC50 μM PKCε) fell in the range of 5 to 50 µM; against human ROCKα/ROCKII mix it was 0.5 to 5 µM.

Turning to `NC(CNC(=O)c1cc2cc(F)ccc2[nH]1)c1ccc(C(=O)Nc2ccncc2)cc1` (stereo not shown) [Compound 129, 5-Fluoro-1H-indole-2-carboxylic acid {2-amino-2-[4-(pyridin-4-ylcarbamoyl)-phenyl]-ethyl}-amide], the IC50 on PKC epsilon (setting [1]) was in the range of 5 to 50 µM; against human ROCKα/ROCKII mix (setting [2]) it was 0.5 to 5 µM.

In the case of `NC(CNC(=O)C1CCOC1)c1ccc(C(=O)Nc2ccncc2)cc1` (stereo not shown) [Compound 65, Tetrahydro-furan-3-carboxylic acid {2-amino-2-[4-(pyridin-4-ylcarbamoyl)-phenyl]-ethyl}-amide], the IC50 on PKC epsilon (setting [1]) and on human ROCKα/ROCKII mix (setting [2]) was 0.5 to 5 µM in each case.

Regarding `CN(CC(N)c1ccc(C(=O)Nc2ccncc2)cc1)C(=O)C1(c2ccc(Cl)c(Cl)c2)CCC1` (stereo not shown) [Compound 494, 4-(1-Amino-2-{[1-(3,4-dichloro-phenyl)-cyclobutanecarbonyl]-methyl-amino}-ethyl)-N-pyridin-4-yl-benzamide], the IC50 on PKC epsilon (read-out: IC50 μM PKCε) is 5 to 50 µM; on human ROCKα/ROCKII mix, 0.5 to 5 µM.

For the molecule `CCNS(=O)(=O)c1cccc(C(=O)NCC(N)c2ccc(C(=O)Nc3ccncc3)cc2)c1` (stereo not shown) [Compound 97, 4-[1-amino-2-(3-ethylsulfamoyl-benzoylamino)-ethyl]-N-pyridin-4-yl-benzamide], the IC50 at PKC epsilon (setting [1]) and against human ROCKα/ROCKII mix (setting [2]) was 0.5 to 5 µM throughout.

As for `COc1cccc(OC)c1CNC(=O)CC(N)c1ccc(C(=O)Nc2ccncc2)cc1` (stereo not shown) [Compound 243, 4-[1-Amino-2-(2,6-dimethoxy-benzylcarbamoyl)-ethy]-N-pyridin-4-yl-benzamide], the 50% inhibitory concentration (IC50) at PKC epsilon (setting [3]) was 0.5 to 5 µM; on human ROCKα/ROCKII mix (setting [4]), 0.05 to 0.5 µM.

Consider `CN(CC(N)c1ccc(C(=O)Nc2ccncc2)cc1)C(=O)Cc1ccc(F)cc1Cl` (stereo not shown) [Compound 498, 4-(1-Amino-2-{[2-(2-chloro-4-fluoro-phenyl)-acetyl]-methyl-amino}-ethyl)-N-pyridin-4-yl-benzamide], for which the half-maximal inhibitory concentration (IC50) at PKC epsilon (read-out: IC50 μM PKCε) lay in the range of 5 to 50 µM; against human ROCKα/ROCKII mix, 0.5 to 5 µM.

Regarding `N#CCCN(C(=O)CC(N)c1ccc(C(=O)Nc2ccncc2)cc1)C1CC1` (stereo not shown) [Compound 178, 4-{1-amino-2-[(2-cyano-ethyl)-cyclopropyl-carbamoyl]-ethyl}-N-pyridin-4-yl-benzamide], the IC50 fell in the range of 5 to 50 µM at PKC epsilon (setting [3]) and 0.5 to 5 µM against human ROCKα/ROCKII mix (setting [4]).

`COc1ccc(OC)c(CCNC(=O)CC(N)c2ccc(C(=O)Nc3ccncc3)cc2)c1` (stereo not shown) [Compound 295, 4-{1-Amino-2-[2-(3,6-dimethoxy-phenyl)-ethylcarbamoyl]-ethyl}-N-pyridin-4-yl-benzamide]: the IC50 at PKC epsilon (setting [3]) fell in the range of 5 to 50 µM; at human ROCKα/ROCKII mix (setting [4]), 0.05 to 0.5 µM.

As to “4-(1-Amino-2-nonanoylamino-ethyl)- N-pyridin-4-yl-benzamide [Compound 38]”, the IC50 was 0.5 to 5 µM on PKC epsilon (setting [1]) and 0.05 to 0.5 µM against human ROCKα/ROCKII mix (setting [2]).

`CN(CC(N)c1ccc(C(=O)Nc2ccncc2)cc1)C(=O)Cc1c(F)cccc1Cl` (stereo not shown) [Compound 496, 4-(1-Amino-2-{[2-(2-chloro-6-fluoro-phenyl)-acetyl]-methyl-amino}-ethyl)-N-pyridin-4-yl-benzamide]: the values for the IC50 on PKC epsilon (read-out: IC50 μM PKCε) and against human ROCKα/ROCKII mix were 5 to 50 µM and 0.5 to 5 µM, respectively.

On to `NC(CNC(=O)CCC1CCCCC1)c1ccc(C(=O)Nc2ccncc2)cc1` (stereo not shown) [Compound 52, 4-[1-Amino-2-(3-cyclohexyl-propionylamino)-ethyl]-N-pyridin-4-yl-benzamide], for which the figures for the IC50 at PKC epsilon (setting [1]) and against human ROCKα/ROCKII mix (setting [2]) were 0.5 to 5 µM and 0.05 to 0.5 µM, respectively.

For `NC(c1ccc(C(=O)Nc2ccncc2)cc1)C1CCCN1C(=O)C1CCc2ccccc21` (stereo not shown) [Compound 608, 4-{Amino-[1-(indane-1-carbonyl)-pyrrolidin-2-yl]-methyl}-N-pyridin-4-yl-benzamide], the IC50 on PKC epsilon (read-out: IC50 μM PKCε) and against human ROCKα/ROCKII mix was 0.5 to 5 µM in each case.

Consider “4-{1-Amino-2-[2-(9H-fluoren- 2-yl)-ethylcarbamoyl]-ethyl}- N-pyridin-4-yl-benzamide [Compound 318]”, for which the half-maximal inhibitory concentration (IC50) at PKC epsilon (setting [3]) lay in the range of 5 to 50 µM; against human ROCKα/ROCKII mix (setting [4]), 0.05 to 0.5 µM.

With `NC(c1ccc(C(=O)Nc2ccncc2)cc1)C1CCCN1C(=O)Cc1c[nH]c2ccccc12` (stereo not shown) [Compound 544, 4-{Amino-[1-(2-1H-indol-3-yl-acetyl)-pyrrolidin-2-yl]-methyl}-N-pyridin-4-yl-benzamide], the IC50 at PKC epsilon (read-out: IC50 μM PKCε) and on human ROCKα/ROCKII mix was 0.5 to 5 µM each time.

On to `NC(CNC(=O)[C@H]1CCC(=O)N1)c1ccc(C(=O)Nc2ccncc2)cc1` (stereo partly drawn) [Compound 68, 5-Oxo-pyrrolidine-2-(R)-carboxylic acid {2-amino-2-[4-(pyridin-4-ylcarbamoyl)-phenyl]-ethyl}-amide], for which the concentration for half-maximal inhibition (IC50) is 5 to 50 µM at PKC epsilon (setting [1]) and 0.05 to 0.5 µM on human ROCKα/ROCKII mix (setting [2]).

Take `NC(CNC(=O)Cc1c(F)cccc1F)c1ccc(C(=O)Nc2ccncc2)cc1` (stereo not shown) [Compound 149, 4-{1-Amino-2-[2-(2,6-difluororo-phenyl)-acetylamino]-ethyl}-N-pyridin-4-yl-benzamide]: the IC50 at PKC epsilon (IC50 μM PKCε, Table 2, compounds of Formula XIII) lay within 0.5 to 5 µM; on human ROCKα/ROCKII mix (setting [2]) it was 0.5 to 5 µM.

Turning to “4-{1-Amino-2-[(thiophen-2- ylmethyl)-carbamoyl]-ethyl}- N-pyridin-4-yl-benzamide [Compound 279]”, the values for the IC50 on PKC epsilon (setting [3]) and against human ROCKα/ROCKII mix (setting [4]) were 0.5 to 5 µM and 0.05 to 0.5 µM, respectively.

As usually defined, the IC50 is the midpoint of a concentration-inhibition curve.
